pIC50: −log10 of the molar value.
How the values were obtained:
[1] = molecular target: T1, Recombinant wild type LRRK2 protein (Homo sapiens, UniProt Q5S007); assay: LanthaScreen Kinase Activity Assay (TR-FRET), wild type LRRK2; assay type: biochemical; conditions: class symbols; 25 μM ATP, 400 nM LRRKtide, 2.9 nM kinase, 60 min at room temperature; read-out: LRRK2 WT IC50
T1 construct: purchased Life Technologies PR8604B
Procedure: (§1) LRRK2 kinase activity was measured using a LanthaScreen™ Kinase Activity Assay from ThermoFisher Scientific. Recombinant wild type or G2019S-LRRK2 protein (Life Technologies, PR8604B or PV4881, respectively), was incubated with a fluorescein-labeled peptide substrate called LRRKtide that is based upon ezrin/radixin/moesin (ERM) (Life Technologies, PV4901) in the presence of ATP and serially diluted compound. After an incubation period of 1 hr, the phosphotransferase activity was stopped and a terbium-labelled anti-pERM antibody (Life Technologies, PV4899) was added to detect the phosphorylation of LRRKtide by measuring the time resolved-Forster resonant energy transfer (TR-FRET) signal from the terbium label on the antibody to the fluorescein tag on LRRKtide, expressed as the 520 nm/495 nm emission ratio. Compound-dependent inhibition of the TR-FRET signal was used to generate a concentration-response curve for IC50 determination.
(§2) The assay was carried out under the following protocol conditions: 1 mM compound in DMSO was serially diluted 1:3, 11 points in DMSO with a Biomek FX and 0.1 μL of the diluted compound was subsequently stamped into the assay plate (384-well format Lumitrac 200, Greiner, 781075) with an Echo Labcyte such that the final compound concentration in the assay was 10 μM to […]. Subsequently, 5 μL of 2× kinase solution (2.9 nM final concentration) was added to the assay plate in assay buffer composed of 50 mM Tris pH 8.5 (Sigma, T6791), 5 mM MgCl2 (Fluka, 63020), 1 mM EGTA (Sigma, E3889), 0.01% BRIJ-35 (Sigma, P1254) and 2 mM DTT. The reaction was started by addition of 2×ATP/LRRKtide solution in assay buffer such that the final concentration was 400 nM LRRKtide and 25 μM ATP. After 60 min incubation at room temperature, the reaction was stopped by addition of […] containing a final concentration of 2 nM anti-pERM antibody and 10 mM EDTA. After a 30 min incubation at RT, the TR-FRET signal was measured on a Wallac 2104 EnVision® multilabel reader at an excitation wavelength of 340 nm and reading emission at 520 nm and 495 nm. The ratio of the 520 nm and 495 nm emission was used to analyze the data.

[2] = molecular target: T2, Recombinant G2019S-LRRK2 protein (Homo sapiens, UniProt Q5S007, G2019S); assay: LanthaScreen Kinase Activity Assay (TR-FRET), G2019S-LRRK2; assay type: biochemical; conditions: class symbols; 25 μM ATP, 400 nM LRRKtide, 2.9 nM kinase, 60 min at room temperature
T2 construct: purchased Life Technologies PV4881
T2 sequence (Q5S007 whole entry G2019S): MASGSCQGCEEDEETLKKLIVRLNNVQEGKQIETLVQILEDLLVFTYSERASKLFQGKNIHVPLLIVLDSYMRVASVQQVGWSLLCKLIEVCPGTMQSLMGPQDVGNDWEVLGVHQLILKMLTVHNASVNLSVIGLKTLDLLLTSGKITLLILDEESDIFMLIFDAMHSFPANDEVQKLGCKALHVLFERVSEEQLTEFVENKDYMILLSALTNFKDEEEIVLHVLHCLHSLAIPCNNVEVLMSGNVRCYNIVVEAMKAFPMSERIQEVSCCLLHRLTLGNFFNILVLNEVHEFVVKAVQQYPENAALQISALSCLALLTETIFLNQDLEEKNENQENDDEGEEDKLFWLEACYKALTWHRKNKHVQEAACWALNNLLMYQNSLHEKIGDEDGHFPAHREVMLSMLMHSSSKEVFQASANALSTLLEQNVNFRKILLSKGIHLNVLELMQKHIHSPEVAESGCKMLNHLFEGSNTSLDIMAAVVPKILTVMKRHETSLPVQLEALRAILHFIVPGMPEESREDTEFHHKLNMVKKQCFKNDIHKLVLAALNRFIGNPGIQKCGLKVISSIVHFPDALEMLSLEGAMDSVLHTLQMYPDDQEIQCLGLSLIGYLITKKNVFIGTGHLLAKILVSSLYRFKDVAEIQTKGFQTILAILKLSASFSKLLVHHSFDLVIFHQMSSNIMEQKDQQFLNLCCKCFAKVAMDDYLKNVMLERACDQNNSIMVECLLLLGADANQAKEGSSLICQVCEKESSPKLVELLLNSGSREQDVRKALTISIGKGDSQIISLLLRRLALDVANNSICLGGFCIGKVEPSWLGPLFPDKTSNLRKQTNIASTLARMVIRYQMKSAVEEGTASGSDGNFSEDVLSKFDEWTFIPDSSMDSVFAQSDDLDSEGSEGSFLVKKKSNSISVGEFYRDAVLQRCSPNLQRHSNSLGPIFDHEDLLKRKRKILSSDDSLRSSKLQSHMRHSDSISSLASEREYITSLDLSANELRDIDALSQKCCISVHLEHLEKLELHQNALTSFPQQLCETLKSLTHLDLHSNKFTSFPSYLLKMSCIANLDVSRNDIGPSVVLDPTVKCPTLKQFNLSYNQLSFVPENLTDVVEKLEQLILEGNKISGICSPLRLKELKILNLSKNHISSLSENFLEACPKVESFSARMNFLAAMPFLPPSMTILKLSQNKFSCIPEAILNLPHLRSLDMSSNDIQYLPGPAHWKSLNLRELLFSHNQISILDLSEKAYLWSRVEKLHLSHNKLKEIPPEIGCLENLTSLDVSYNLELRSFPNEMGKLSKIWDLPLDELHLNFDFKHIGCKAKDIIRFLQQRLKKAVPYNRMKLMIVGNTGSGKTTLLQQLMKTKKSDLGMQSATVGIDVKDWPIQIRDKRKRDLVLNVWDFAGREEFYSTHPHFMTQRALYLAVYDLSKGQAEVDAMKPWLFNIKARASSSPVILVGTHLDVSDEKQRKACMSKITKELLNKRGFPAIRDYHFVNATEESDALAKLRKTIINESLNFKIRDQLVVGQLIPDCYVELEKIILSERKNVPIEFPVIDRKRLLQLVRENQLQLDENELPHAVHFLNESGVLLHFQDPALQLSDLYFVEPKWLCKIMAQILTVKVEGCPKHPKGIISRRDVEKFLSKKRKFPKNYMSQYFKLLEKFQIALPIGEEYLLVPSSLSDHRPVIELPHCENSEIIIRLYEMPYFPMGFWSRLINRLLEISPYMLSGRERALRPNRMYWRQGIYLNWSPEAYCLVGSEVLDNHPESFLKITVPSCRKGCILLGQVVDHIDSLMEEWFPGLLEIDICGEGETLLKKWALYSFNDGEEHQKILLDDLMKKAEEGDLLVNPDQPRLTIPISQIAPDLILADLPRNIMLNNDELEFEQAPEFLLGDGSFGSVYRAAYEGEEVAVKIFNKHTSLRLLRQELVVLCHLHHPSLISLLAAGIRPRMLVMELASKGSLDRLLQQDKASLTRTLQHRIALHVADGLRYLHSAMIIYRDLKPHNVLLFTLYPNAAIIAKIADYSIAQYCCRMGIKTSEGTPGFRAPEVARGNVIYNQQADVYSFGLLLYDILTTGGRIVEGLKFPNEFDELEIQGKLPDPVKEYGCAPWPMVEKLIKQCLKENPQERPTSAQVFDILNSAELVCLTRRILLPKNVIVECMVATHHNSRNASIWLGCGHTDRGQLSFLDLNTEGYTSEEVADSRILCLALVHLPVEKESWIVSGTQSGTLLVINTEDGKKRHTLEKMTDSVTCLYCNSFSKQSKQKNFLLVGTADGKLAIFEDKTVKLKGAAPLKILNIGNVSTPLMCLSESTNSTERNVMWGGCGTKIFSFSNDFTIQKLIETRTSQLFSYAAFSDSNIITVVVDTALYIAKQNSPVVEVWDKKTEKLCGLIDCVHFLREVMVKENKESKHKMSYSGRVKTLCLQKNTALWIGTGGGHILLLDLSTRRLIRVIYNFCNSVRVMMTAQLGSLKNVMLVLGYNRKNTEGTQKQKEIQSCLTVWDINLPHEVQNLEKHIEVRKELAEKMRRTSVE
Procedure: as §1, §2

T1 sequence (Q5S007 whole entry): as the sequence (Q5S007 whole entry G2019S) above, with S2019G counted along it

COc1ccc(C)c(-c2n[nH]c3ccc(NC(=O)c4c(F)cc5c(cnn5C)c4F)cc23)c1 [Example 90, 4,6-Difluoro-N-(3-(5-methoxy-2-methylphenyl)-1H-indazol-5-yl)-1-methyl-1H-indazole-5-carboxamide]
pIC50 [1]: 5.00 to 6.00 | pIC50 [2]: 6.00 to 7.00

Cn1cnc2ccc(C(=O)Nc3ccc4[nH]nc(-c5ccoc5)c4c3)cc21 [Example 131, N-(3-(Furan-3-yl)-1H-indazol-5-yl)-1-methyl-1H-benzo[d]imidazole-6-carboxamide]
pIC50 [1]: ≥ 7.00 | pIC50 [2]: ≥ 7.00

O=C(Nc1ccc2[nH]nc(-c3ccoc3)c2c1)c1ccc2ncsc2n1 [Example 122, N-(3-(Furan-3-yl)-1H-indazol-5-yl)thiazolo[5,4-b]pyridine-5-carboxamide]
pIC50 [1]: ≥ 7.00 | pIC50 [2]: ≥ 7.00

Cn1ncc2c(F)c(C(=O)Nc3ccc4[nH]nc(-c5cocn5)c4c3)c(F)cc21 [Example 136, 4,6-Difluoro-1-methyl-N-(3-(oxazol-4-yl)-1H-indazol-5-yl)-1H-indazole-5-carboxamide]
pIC50 [1]: 6.00 to 7.00 | pIC50 [2]: ≥ 7.00

Cc1cc2c(C)nnn2c(C)c1C(=O)Nc1ccc2[nH]nc(C)c2c1 [Example 65, 3,5,7-Trimethyl-N-(3-methyl-1H-indazol-5-yl)-[1,2,3]triazolo[1,5-a]pyridine-6-carboxamide]
pIC50 [1]: 5.00 to 6.00 | pIC50 [2]: 6.00 to 7.00

O=C(Nc1ccc2[nH]nc(-c3ccoc3)c2c1)c1ccc2scnc2c1 [Example 124, N-(3-(Furan-3-yl)-1H-indazol-5-yl)benzo[d]thiazole-5-carboxamide]
pIC50 [1]: 6.00 to 7.00 | pIC50 [2]: 6.00 to 7.00

Cc1cc2[nH]ncc2cc1C(=O)Nc1ccc2[nH]nc(-c3ccccc3)c2c1 [Example 21, 6-Methyl-N-(3-phenyl-1H-indazol-5-yl)-1H-indazole-5-carboxamide]
pIC50 [1]: ≥ 7.00 | pIC50 [2]: ≥ 7.00

Cc1cc2cncn2c(C)c1C(=O)Nc1ccc2[nH]nc(-c3ccoc3)c2c1 [Example 151, N-(3-(Furan-3-yl)-1H-indazol-5-yl)-5,7-dimethylimidazo[1,5-a]pyridine-6-carboxamide]
pIC50 [1]: ≥ 7.00 | pIC50 [2]: ≥ 7.00

Cn1ncc2cc(C(=O)Nc3ccc4[nH]nc(-c5ccoc5)c4c3)ccc21 [Example 133, N-(3-(Furan-3-yl)-1H-indazol-5-yl)-1-methyl-1H-indazole-5-carboxamide]
pIC50 [1]: ≥ 7.00 | pIC50 [2]: ≥ 7.00

O=C(Nc1ccc2[nH]nc(-c3ccccc3)c2c1)c1cc2[nH]ncc2cc1C(F)(F)F [Example 70, N-(3-Phenyl-1H-indazol-5-yl)-5-(trifluoromethyl)-1H-indazole-6-carboxamide]
pIC50 [1]: 6.00 to 7.00 | pIC50 [2]: ≥ 7.00

Cc1cccc(-c2n[nH]c3ccc(NC(=O)c4c(C)cc5cnnn5c4C)cc23)c1C [Example 47, N-(3-(2,3-Dimethylphenyl)-1H-indazol-5-yl)-5,7-dimethyl-[1,2,3]triazolo[1,5-a]pyridine-6-carboxamide]
pIC50 [1]: 5.00 to 6.00 | pIC50 [2]: 6.00 to 7.00

Cn1ncc2c(F)c(C(=O)Nc3ccc4[nH]nc(-n5ccnc5)c4c3)c(F)cc21 [Example 141, N-(3-(1H-Imidazol-1-yl)-1H-indazol-5-yl)-4,6-difluoro-1-methyl-1H-indazole-5-carboxamide]
pIC50 [1]: 6.00 to 7.00 | pIC50 [2]: ≥ 7.00

Cn1ncc2nc(C(=O)Nc3ccc4[nH]nc(-c5cnco5)c4c3)ccc21 [Example 165, 1-Methyl-N-(3-(oxazol-5-yl)-1H-indazol-5-yl)-1H-pyrazolo[4,3-b]pyridine-5-carboxamide]
pIC50 [1]: 6.00 to 7.00 | pIC50 [2]: ≥ 7.00

Cc1cc2[nH]nnc2c(C)c1C(=O)Nc1ccc2[nH]nc(C)c2c1 [Example 11, 4,6-Dimethyl-N-(3-methyl-1H-indazol-5-yl)-1H-benzo[d][1,2,3]triazole-5-carboxamide]
pIC50 [1]: 5.00 to 6.00 | pIC50 [2]: 6.00 to 7.00

O=C(Nc1ccc2[nH]nc(-c3ccccc3)c2c1)c1c(Cl)cn2cnnc2c1Cl [Example 63, 6,8-dichloro-N-(3-phenyl-1H-indazol-5-yl)-[1,2,4]triazolo[4,3-a]pyridine-7-carboxamide]
pIC50 [1]: ≥ 7.00 | pIC50 [2]: ≥ 7.00

Cc1n[nH]c2ccc(NC(=O)c3ccn4cnnc4c3)cc12 [Example 5, N-(3-Methyl-1H-indazol-5-yl)-[1,2,4]triazolo[4,3-a]pyridine-7-carboxamide]
pIC50 [1]: 5.00 to 6.00 | pIC50 [2]: 5.00 to 6.00

Cc1cc2[nH]cnc2cc1C(=O)Nc1ccc2[nH]nc(-c3ccccc3)c2c1 [Example 19, 6-Methyl-N-(3-phenyl-1H-indazol-5-yl)-1H-benzo[d]imidazole-5-carboxamide]
pIC50 [1]: 6.00 to 7.00 | pIC50 [2]: ≥ 7.00

Cn1cc2c(n1)CCC(C(=O)Nc1ccc3[nH]nc(-c4ccoc4)c3c1)C2 (single isomer, unassigned) [Example 161d]
pIC50 [1]: 6.00 to 7.00 | pIC50 [2]: ≥ 7.00

Cc1cn2cncc2cc1C(=O)Nc1ccc2[nH]nc(-c3ccoc3)c2c1 [Example 152, N-(3-(Furan-3-yl)-1H-indazol-5-yl)-6-methylimidazo[1,5-a]pyridine-7-carboxamide]
pIC50 [1]: ≥ 7.00 | pIC50 [2]: ≥ 7.00

Cc1nn2ccncc2c1C(=O)Nc1ccc2[nH]nc(-c3ccoc3)c2c1 [Example 164, N-(3-(furan-3-yl)-1H-indazol-5-yl)-2-methylpyrazolo[1,5-a]pyrazine-3-carboxamide]
pIC50 [1]: 6.00 to 7.00 | pIC50 [2]: 6.00 to 7.00

Cc1cc(-c2n[nH]c3ccc(NC(=O)c4c(F)cc5c(cnn5C)c4F)cc23)cc(C)n1 [Example 83, N-(3-(2,6-Dimethylpyridin-4-yl)-1H-indazol-5-yl)-4,6-difluoro-1-methyl-1H-indazole-5-carboxamide]
pIC50 [1]: ≥ 7.00 | pIC50 [2]: ≥ 7.00

Cc1oncc1-c1n[nH]c2ccc(NC(=O)c3c(F)cc4c(cnn4C)c3F)cc12 [Example 29, 4,6-Difluoro-1-methyl-N-(3-(5-methylisoxazol-4-yl)-1H-indazol-5-yl)-1H-indazole-5-carboxamide]
pIC50 [1]: 6.00 to 7.00 | pIC50 [2]: ≥ 7.00

Cn1ncc2c(F)c(C(=O)Nc3ccc4[nH]nc(N5CCCC5)c4c3)c(F)cc21 [Example 108, 4,6-Difluoro-1-methyl-N-(3-(pyrrolidin-1-yl)-1H-indazol-5-yl)-1H-indazole-5-carboxamide]
pIC50 [1]: 5.00 to 6.00 | pIC50 [2]: 6.00 to 7.00

O=C(Nc1ccc2[nH]nc(-c3ccoc3)c2c1)C1CCc2nncn2C1 (single isomer, unassigned) [Example 162a]
pIC50 [1]: ≥ 7.00 | pIC50 [2]: ≥ 7.00

Cn1ncc2c(F)c(C(=O)Nc3ccc4[nH]nc(C5=CCCO5)c4c3)c(F)cc21 [Example 72, N-(3-(4,5-Dihydrofuran-2-yl)-1H-indazol-5-yl)-4,6-difluoro-1-methyl-1H-indazole-5-carboxamide]
pIC50 [1]: 5.00 to 6.00 | pIC50 [2]: 6.00 to 7.00

COc1ccncc1-c1n[nH]c2ccc(NC(=O)c3c(F)cc4c(cnn4C)c3F)cc12 [Example 102, 4,6-Difluoro-N-(3-(4-methoxypyridin-3-yl)-1H-indazol-5-yl)-1-methyl-1H-indazole-5-carboxamide]
pIC50 [1]: 6.00 to 7.00 | pIC50 [2]: ≥ 7.00

Cn1cnc2cc(C(=O)Nc3ccc4[nH]nc(-c5ccoc5)c4c3)ccc21 [Example 132, N-(3-(Furan-3-yl)-1H-indazol-5-yl)-1-methyl-1H-benzo[d]imidazole-5-carboxamide]
pIC50 [1]: 6.00 to 7.00 | pIC50 [2]: 6.00 to 7.00

O=C(Nc1ccc2[nH]nc(-c3ccoc3)c2c1)c1nc2ccncc2s1 [Example 171, N-(3-(Furan-3-yl)-1H-indazol-5-yl)thiazolo[5,4-c]pyridine-2-carboxamide]
pIC50 [1]: ≥ 7.00 | pIC50 [2]: ≥ 7.00

O=C(Nc1ccc2[nH]nc(-c3ccoc3)c2c1)c1cn2cccnc2n1 [Example 128, N-(3-(Furan-3-yl)-1H-indazol-5-yl)imidazo[1,2-a]pyrimidine-2-carboxamide]
pIC50 [1]: 6.00 to 7.00 | pIC50 [2]: 6.00 to 7.00

Cc1cc2c(cnn2C)c(C)c1C(=O)Nc1ccc2[nH]nc(-c3ccoc3)c2c1 [Example 157, N-(3-(Furan-3-yl)-1H-indazol-5-yl)-1,4,6-trimethyl-1H-indazole-5-carboxamide]
pIC50 [1]: ≥ 7.00 | pIC50 [2]: ≥ 7.00

Cc1cc2cnsc2nc1C(=O)Nc1ccc2[nH]nc(-c3cnco3)c2c1 [Example 168, 5-Methyl-N-(3-(oxazol-5-yl)-1H-indazol-5-yl)isothiazolo[5,4-b]pyridine-6-carboxamide]
pIC50 [1]: ≥ 7.00 | pIC50 [2]: ≥ 7.00
